Assay: Intratracheal bolus instillation of alpha-tocopherol solution in F6H8
Assay type: in vivo
Details: pigs
Description: In the clinical experiment on pigs some of that solution was intratracheally instilled bolus-wise.

Cc1c(C)c2c(c(C)c1O)CC[C@@](C)(CCC[C@H](C)CCC[C@H](C)CCCC(C)C)O2 [alpha-tocopherol]
location of the drug after exhaling the SFA: remained in the alveolar region | transfer of the drug into the bloodstream: no transfer of the drug into the bloodstream was detected
